Marks after values point to notes of the source that are not given here.
Tests used:
[1] = tested on: collagen type I; test: Anti-glycation: non enzymatic glycation of collagen type I incubated with glucose (Schiff's bases fluorescence); type: biochemical; conditions: 3 weeks at 45° C., mean +/- SEM
Protocol: In order to evaluate the potential of Manilkara multinervis extract to reduce the rate of “non enzymatic” glycation of proteins such as skin collagen, the extract was tested in comparison to aminoguanidine as a positive reference. The “non-enzymatic” glycation results from the reaction of proteins with reducing sugars such as glucose and […]. These sugars react with the free amino groups present in the proteins to form the so called “Schiff's bases”, ultimately resulting in so-called “advanced glycosylation endproducts”. In human skin, the process of “non enzymatic” glycation causes in time a decrease of strength and an atrophy of dermis which are characteristic of skin aging.
The extracts were tested in vitro by incubating collagen type I in solution with glucose during 3 weeks at 45° C. Then the level of “non enzymatic” glycation was determined by measuring the rate of “Schiff's bases” through the record of fluorescence at 430 nm (excitation at 350 nm) of the supernatant solution recovered after centrifugation of the solutions during 15 minutes at 3500 rpm (revolution per minute). The rates of “non enzymatic” glycation were calculated as % referring to the control with glucose. The assays were repeated up to 6 times and the results were expressed in percentage referring to the control with glucose then presented as a mean+/− the SEM (standard error of mean) and statistically evaluated by the student t test. All % values given are weight-%.

[2] = tested on: human dermal fibroblasts; test: Pro-collagen (type I) effect: released type I collagen (ELISA) and cellular proteins (Bradford); type: cell-based; conditions: 5 μg/ml; 3 days; percentage referring to the control medium; mean +/- SEM
Protocol: Manilkara multinervis extract according to example 1 was incubated on human dermal fibroblasts cultured in vitro and the release of collagen type I was measured in cell culture medium through an ELISA method. It was tested in comparison to the positive reference vitamin C (ascorbic acid). The human dermal fibroblasts were cultured within growth medium enriched with Fetal Calf Serum (FCS) and incubated for 1 day at 37° C. […] Thereafter, the cell number was measured by quantification of cellular proteins (Bradford's method) while the level of collagen synthesis was determined by quantification of collagen peptides in cell culture medium (ELISA method). The results were calculated through a reference range of proteins or collagen and then expressed in percentage referring to the control medium and presented as a mean+/−SEM (Standard Error of Mean) from 4 assays in triplicate.

[3] = tested on: human dermal fibroblasts; test: Fibulin-5 synthesis by immunocytochemistry (ICC); type: cell-based; conditions: 10 ng/ml, mean only
Protocol: Manilkara multinervis extract according to example 1 was incubated on human dermal fibroblasts cultured in vitro and the synthesis of fibulin-5 was measured in cell culture medium through an ICC method. It was tested in comparison to the positive reference TGF-β1 (Transforming Growth Factor-β1).
The human dermal fibroblasts were cultured within growth medium enriched with Fetal Calf Serum (FCS) and incubated for 3 days at 37° C. Then the growth medium was exchanged for a standard medium containing FCS at 1% and the Manilkara multinervis extract according to example 1 and incubated for 5 days at 37° C. Thereafter, the fibulin-5 synthesis was measured by immunocytochemistry (ICC) technique. The results were expressed in percentage of staining occupation and presented for 2 assays as a mean+/−SEM (Standard Error of Mean) of 6 measurements.

[4] = tested on: human dermal fibroblasts; test: Tropoelastin synthesis by immunocytochemistry (ICC); type: cell-based; conditions: 10 ng/ml
Protocol: Manilkara multinervis extract according to example 1 was incubated on human dermal fibroblasts cultured in vitro and the synthesis of tropoelastin was measured in cell culture medium through an ICC method. It was tested in comparison to the positive reference TGF-β1 (Transforming Growth Factor-β1).
The human dermal fibroblasts were cultured within growth medium enriched with Fetal Calf Serum (FCS) and incubated for 3 days at 37° C. Then the growth medium was exchanged for a standard medium containing FCS at 1% and the Manilkara multinervis extract according to example 1 and incubated several days at 37° C. Thereafter, the tropoelastin synthesis was measured by immunocytochemistry (ICC) technique. The results were expressed in percentage of staining occupation and presented for 3 assays as a mean+/−SEM (Standard Error of Mean) of 6 measurements.

N=C(N)NN [Aminoguanidine, aminoguanidine]
Rate of Schiff's bases in %/control with glucose ([1]; 0.02%): 47 +/− 1** (n = 6) %/control with glucose | Rate of Schiff's bases in %/control with glucose ([1]; 0.05%): 34 +/− 1** (n = 6) %/control with glucose | Rate of Schiff's bases in %/control with glucose ([1]; 0.1%): 27 +/− 1** (n = 6) %/control with glucose

O=C1O[C@H]([C@@H](O)CO)C(O)=C1O [Vitamin C, ascorbic acid]
Cellular Proteins [2]: 97 +/− 4% | Released type I Collagen [2]: 138 +/− 14** %

TGF-β1: positive reference TGF-β1 (Transforming Growth Factor-β1)
% of staining occupation Assay 1 (fibulin-5) ([3]; Assay 1, control 15.57 +/− 4.38): 79.99% | % of staining occupation Assay 2 (fibulin-5) ([3]; Assay 2, control 2.65 +/− 0.36): 18.8% | stimulation of tropoelastin synthesis (mean) [4]: 82%
